Measured values taken from the supplement of paper PMC10307832.

Tests used:
Assay in all cases: relative viability (nuclei count vs DMSO), 5 days (fraction); higher = more cells survive
Linifanib = compound: Cc1ccc(F)c(NC(=O)Nc2ccc(-c3cccc4[nH]nc(N)c34)cc2)c1 [Linifanib]
Procedure, shortened: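 Five library-drug doses spaced by √10 were pinned onto vehicle-anchored 1536-well plates of lung cancer cell lines that had been kept overnight at 37 °C. Cells went 5 days without medium change, then were fixed, permeabilised and Hoechst-stained together, imaged at 4× and counted by MetaXpress. Viability is the ratio of treated-well to vehicle-well nuclei, taken as a median over plates. Plates required control CV below 25% and at least one doubling.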

Linifanib + Bortezomib = compound: Cc1ccc(F)c(NC(=O)Nc2ccc(-c3cccc4[nH]nc(N)c34)cc2)c1 [Linifanib] + CC(C)C[C@H](NC(=O)[C@H](Cc1ccccc1)NC(=O)c1cnccn1)B(O)O [Bortezomib] (partner 0.002 µM)
Procedure, shortened: (§1)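 For relative viability, nuclei counts in treated wells were divided by those in vehicle wells. Lung cancer cell lines had been pin-tool dosed in 1536-well plates the day after seeding and cultured for 5 days, then fixed and stained in one step (final 0.05% Triton X-100, 1% formaldehyde, 1 ug/ml Hoechst) and imaged at 4×. Doses were one drug alone or a fixed anchor-drug dose plus five library-drug doses (not always all listed) in √10 steps, and values are duplicate-plate medians.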

Linifanib + Navitoclax = compound: Cc1ccc(F)c(NC(=O)Nc2ccc(-c3cccc4[nH]nc(N)c34)cc2)c1 [Linifanib] + CC1(C)CCC(c2ccc(Cl)cc2)=C(CN2CCN(c3ccc(C(=O)NS(=O)(=O)c4ccc(N[C@H](CCN5CCOCC5)CSc5ccccc5)c(S(=O)(=O)C(F)(F)F)c4)cc3)CC2)C1 [Navitoclax] (partner 0.5 µM)
Procedure, shortened: as §1

Linifanib + Foretinib = compound: Cc1ccc(F)c(NC(=O)Nc2ccc(-c3cccc4[nH]nc(N)c34)cc2)c1 [Linifanib] + COc1cc2c(Oc3ccc(NC(=O)C4(C(=O)Nc5ccc(F)cc5)CC4)cc3F)ccnc2cc1OCCCN1CCOCC1 [Foretinib] (partner 0.25 µM)
Procedure, shortened: as §1

Linifanib + Lapatinib = compound: Cc1ccc(F)c(NC(=O)Nc2ccc(-c3cccc4[nH]nc(N)c34)cc2)c1 [Linifanib] + CS(=O)(=O)CCNCc1ccc(-c2ccc3ncnc(Nc4ccc(OCc5cccc(F)c5)c(Cl)c4)c3c2)o1 [Lapatinib] (partner 2 µM)
Procedure, shortened: as §1

Linifanib + Pictilisib = compound: Cc1ccc(F)c(NC(=O)Nc2ccc(-c3cccc4[nH]nc(N)c34)cc2)c1 [Linifanib] + CS(=O)(=O)N1CCN(Cc2cc3nc(-c4cccc5[nH]ncc45)nc(N4CCOCC4)c3s2)CC1 [Pictilisib] (partner 1 µM)
Procedure, shortened: as §1

Linifanib + Crizotinib = compound: Cc1ccc(F)c(NC(=O)Nc2ccc(-c3cccc4[nH]nc(N)c34)cc2)c1 [Linifanib] + C[C@@H](Oc1cc(-c2cnn(C3CCNCC3)c2)cnc1N)c1c(Cl)ccc(F)c1Cl [Crizotinib] (partner 1 µM)
Procedure, shortened: as §1

Linifanib + Linsitinib = compound: Cc1ccc(F)c(NC(=O)Nc2ccc(-c3cccc4[nH]nc(N)c34)cc2)c1 [Linifanib] + C[C@]1(O)C[C@@H](c2nc(-c3ccc4ccc(-c5ccccc5)nc4c3)c3c(N)nccn32)C1 [Linsitinib] (partner 1 µM)
Procedure, shortened: as §1

Linifanib + Alpelisib = compound: Cc1ccc(F)c(NC(=O)Nc2ccc(-c3cccc4[nH]nc(N)c34)cc2)c1 [Linifanib] + Cc1nc(NC(=O)N2CCC[C@H]2C(N)=O)sc1-c1ccnc(C(C)(C)C(F)(F)F)c1 [Alpelisib] (partner 2 µM)
Procedure, shortened: as §1

Linifanib + Olaparib = compound: Cc1ccc(F)c(NC(=O)Nc2ccc(-c3cccc4[nH]nc(N)c34)cc2)c1 [Linifanib] + O=C(c1cc(Cc2n[nH]c(=O)c3ccccc23)ccc1F)N1CCN(C(=O)C2CC2)CC1 [Olaparib] (partner 8 µM)
Procedure, shortened: as §1

Linifanib + Trametinib = compound: Cc1ccc(F)c(NC(=O)Nc2ccc(-c3cccc4[nH]nc(N)c34)cc2)c1 [Linifanib] + CC(=O)Nc1cccc(-n2c(=O)n(C3CC3)c(=O)c3c(Nc4ccc(I)cc4F)n(C)c(=O)c(C)c32)c1 [Trametinib] (partner 0.02 µM)
Procedure, shortened: as §1

Linifanib + Palbociclib = compound: Cc1ccc(F)c(NC(=O)Nc2ccc(-c3cccc4[nH]nc(N)c34)cc2)c1 [Linifanib] + CC(=O)c1c(C)c2cnc(Nc3ccc(N4CCNCC4)cn3)nc2n(C2CCCC2)c1=O [Palbociclib] (partner 0.5 µM)
Procedure, shortened: as §1

Linifanib + OSI-027 = compound: Cc1ccc(F)c(NC(=O)Nc2ccc(-c3cccc4[nH]nc(N)c34)cc2)c1 [Linifanib] + COc1cccc2cc(-c3nc([C@H]4CC[C@H](C(=O)O)CC4)n4ncnc(N)c34)[nH]c12 [OSI-027] (partner 0.5 µM)
Procedure, shortened: as §1

Linifanib + Tozasertib = compound: Cc1ccc(F)c(NC(=O)Nc2ccc(-c3cccc4[nH]nc(N)c34)cc2)c1 [Linifanib] + Cc1cc(Nc2cc(N3CCN(C)CC3)nc(Sc3ccc(NC(=O)C4CC4)cc3)n2)n[nH]1 [Tozasertib] (partner 0.1 µM)
Procedure, shortened: as §1

Linifanib + AZD7762 = compound: Cc1ccc(F)c(NC(=O)Nc2ccc(-c3cccc4[nH]nc(N)c34)cc2)c1 [Linifanib] + NC(=O)Nc1cc(-c2cccc(F)c2)sc1C(=O)N[C@H]1CCCNC1 [AZD7762] (partner 0.2 µM)
Procedure, shortened: as §1

Linifanib + Pemetrexed = compound: Cc1ccc(F)c(NC(=O)Nc2ccc(-c3cccc4[nH]nc(N)c34)cc2)c1 [Linifanib] + Nc1nc2[nH]cc(CCc3ccc(C(=O)N[C@@H](CCC(=O)O)C(=O)O)cc3)c2c(=O)[nH]1 [Pemetrexed] (partner 0.2 µM)
Procedure, shortened: as §1

Linifanib + Decitabine = compound: Cc1ccc(F)c(NC(=O)Nc2ccc(-c3cccc4[nH]nc(N)c34)cc2)c1 [Linifanib] + Nc1ncn([C@H]2C[C@H](O)[C@@H](CO)O2)c(=O)n1 [Decitabine] (partner 2 µM)
Procedure, shortened: as §1

Linifanib + Vorinostat = compound: Cc1ccc(F)c(NC(=O)Nc2ccc(-c3cccc4[nH]nc(N)c34)cc2)c1 [Linifanib] + O=C(CCCCCCC(=O)Nc1ccccc1)NO [Vorinostat] (partner 1 µM)
Procedure, shortened: as §1

Calu-6 showed a relative viability (Linifanib; 0.03162 µM) of 1.05, a relative viability (Linifanib; 0.1 µM) of 1.05 and a relative viability (Linifanib; 0.3162 µM) of 0.995. For the same cell line, the relative viability (Linifanib + Bortezomib; first compound 0.03162 µM) was 0.978, the relative viability (Linifanib + Bortezomib; first compound 0.1 µM) was 1.15 and the relative viability (Linifanib + Bortezomib; first compound 0.3162 µM) was 1.07. For the same cell line, the relative viability (Linifanib + Navitoclax; first compound 0.03162 µM) was 0.888, the relative viability (Linifanib + Navitoclax; first compound 0.1 µM) was 0.863 and the relative viability (Linifanib + Navitoclax; first compound 0.3162 µM) was 0.873. For the same cell line, the relative viability (Linifanib + Foretinib; first compound 0.03162 µM) was 0.812, the relative viability (Linifanib + Foretinib; first compound 0.1 µM) was 0.95 and the relative viability (Linifanib + Foretinib; first compound 0.3162 µM) was 0.881. It also gave a relative viability (Linifanib + Lapatinib; first compound 0.03162 µM) of 1.12, a relative viability (Linifanib + Lapatinib; first compound 0.1 µM) of 1.19 and a relative viability (Linifanib + Lapatinib; first compound 0.3162 µM) of 1. It also gave a relative viability (Linifanib + Pictilisib; first compound 0.03162 µM) of 0.93, a relative viability (Linifanib + Pictilisib; first compound 0.1 µM) of 0.995 and a relative viability (Linifanib + Pictilisib; first compound 0.3162 µM) of 0.892. For the same cell line, the relative viability (Linifanib + Crizotinib; first compound 0.03162 µM) was 0.815, the relative viability (Linifanib + Crizotinib; first compound 0.1 µM) was 0.768 and the relative viability (Linifanib + Crizotinib; first compound 0.3162 µM) was 0.826. For the same cell line, the relative viability (Linifanib + Linsitinib; first compound 0.03162 µM) was 1.01, the relative viability (Linifanib + Linsitinib; first compound 0.1 µM) was 0.919 and the relative viability (Linifanib + Linsitinib; first compound 0.3162 µM) was 0.969. For the same cell line, the relative viability (Linifanib + Alpelisib; first compound 0.03162 µM) was 1.08, the relative viability (Linifanib + Alpelisib; first compound 0.1 µM) was 1.05 and the relative viability (Linifanib + Alpelisib; first compound 0.3162 µM) was 1.01. The relative viability (Linifanib + Olaparib; first compound 0.03162 µM) was 0.539, the relative viability (Linifanib + Olaparib; first compound 0.1 µM) was 0.602 and the relative viability (Linifanib + Olaparib; first compound 0.3162 µM) was 0.565.

NCI-H1648 was tested, and the relative viability (Linifanib; 0.03162 µM) was 0.847, the relative viability (Linifanib; 0.1 µM) was 0.688 and the relative viability (Linifanib; 0.3162 µM) was 1.08. For the same cell line, the relative viability (Linifanib + Trametinib; first compound 0.03162 µM) was 0.469, the relative viability (Linifanib + Trametinib; first compound 0.3162 µM) was 0.461 and the relative viability (Linifanib + Palbociclib; first compound 0.03162 µM) was 0.234. The relative viability (Linifanib + Palbociclib; first compound 0.3162 µM) was 0.269, the relative viability (Linifanib + OSI-027; first compound 0.03162 µM) was 0.26 and the relative viability (Linifanib + OSI-027; first compound 0.1 µM) was 0.229. The relative viability (Linifanib + OSI-027; first compound 0.3162 µM) was 0.263, the relative viability (Linifanib + Tozasertib; first compound 0.03162 µM) was 0.433 and the relative viability (Linifanib + Tozasertib; first compound 0.1 µM) was 0.441. The relative viability (Linifanib + Tozasertib; first compound 0.3162 µM) was 0.422, the relative viability (Linifanib + AZD7762; first compound 0.03162 µM) was 0.755 and the relative viability (Linifanib + AZD7762; first compound 0.3162 µM) was 0.509. The relative viability (Linifanib + Pemetrexed; first compound 0.03162 µM) was 0.716, the relative viability (Linifanib + Pemetrexed; first compound 0.3162 µM) was 0.654 and the relative viability (Linifanib + Decitabine; first compound 0.03162 µM) was 0.5. For the same cell line, the relative viability (Linifanib + Decitabine; first compound 0.3162 µM) was 0.45, the relative viability (Linifanib + Vorinostat; first compound 0.03162 µM) was 0.491 and the relative viability (Linifanib + Vorinostat; first compound 0.3162 µM) was 0.412. For the same cell line, the relative viability (Linifanib + Olaparib; first compound 0.03162 µM) was 0.847 and the relative viability (Linifanib + Olaparib; first compound 0.3162 µM) was 1.11.

In the case of NCI-H1299, the relative viability (Linifanib; 0.03162 µM) was 1.02, the relative viability (Linifanib; 0.1 µM) was 1.02 and the relative viability (Linifanib; 0.3162 µM) was 1.03. It also gave a relative viability (Linifanib + Bortezomib; first compound 0.03162 µM) of 1.03, a relative viability (Linifanib + Bortezomib; first compound 0.1 µM) of 1.01 and a relative viability (Linifanib + Bortezomib; first compound 0.3162 µM) of 1.02. For the same cell line, the relative viability (Linifanib + Navitoclax; first compound 0.03162 µM) was 1.06, the relative viability (Linifanib + Navitoclax; first compound 0.1 µM) was 1.08 and the relative viability (Linifanib + Navitoclax; first compound 0.3162 µM) was 1. It also gave a relative viability (Linifanib + Foretinib; first compound 0.03162 µM) of 1.1, a relative viability (Linifanib + Foretinib; first compound 0.1 µM) of 1.11 and a relative viability (Linifanib + Foretinib; first compound 0.3162 µM) of 1.04. The relative viability (Linifanib + Lapatinib; first compound 0.03162 µM) was 0.951, the relative viability (Linifanib + Lapatinib; first compound 0.1 µM) was 0.95 and the relative viability (Linifanib + Lapatinib; first compound 0.3162 µM) was 0.994. It also gave a relative viability (Linifanib + Pictilisib; first compound 0.03162 µM) of 0.575, a relative viability (Linifanib + Pictilisib; first compound 0.1 µM) of 0.885 and a relative viability (Linifanib + Pictilisib; first compound 0.3162 µM) of 0.829. The relative viability (Linifanib + Crizotinib; first compound 0.03162 µM) was 0.899, the relative viability (Linifanib + Crizotinib; first compound 0.1 µM) was 0.956 and the relative viability (Linifanib + Crizotinib; first compound 0.3162 µM) was 0.97. The relative viability (Linifanib + Linsitinib; first compound 0.03162 µM) was 0.975, the relative viability (Linifanib + Linsitinib; first compound 0.1 µM) was 0.996 and the relative viability (Linifanib + Linsitinib; first compound 0.3162 µM) was 0.998. For the same cell line, the relative viability (Linifanib + Alpelisib; first compound 0.03162 µM) was 1.11, the relative viability (Linifanib + Alpelisib; first compound 0.1 µM) was 1.02 and the relative viability (Linifanib + Alpelisib; first compound 0.3162 µM) was 1.06. The relative viability (Linifanib + Olaparib; first compound 0.03162 µM) was 0.978, the relative viability (Linifanib + Olaparib; first compound 0.1 µM) was 0.958 and the relative viability (Linifanib + Olaparib; first compound 0.3162 µM) was 0.959.
